# According to PubChem BioAssay AID1963826 (Molecular Pharmacology Branch, DTP, NCI, 2024):
# Test system: 926638-142-R-J1-PDC complex spheroid viability
# Test: Anticancer human tumor 926638-142-R-J1-PDC patient-derived endometrial carcinoma cell line growth inhibition [POLQ]
# Settings: for IC50: curve of first compound; for viability, T/C: stronger effect = lower value
# Protocol: Multicellular complex tumor spheroid response to Polymerase (POL) inhibitors (novobiocin, ART-558, RP6685) in combination with a variety of drugs and investigational agents in selected tumor cell lines
# The POL inhibitors (novobiocin, ART-558, and RP6685) were evaluated both individually and in combination with standard of care and investigational anticancer small molecules within a complex spheroid model of solid tumors. . Complex spheroids include a stromal component modeled by human endothelial cells (HUVEC) and fibroblasts modeled by human mesenchymal stem cells (MSCs). The concentration ranges selected for each drug and investigational agent were based upon clinically achievable concentrations if the clinical Cmax of the agent was known.
# Compounds. The drugs and investigational agents: novobiocin (NSC847541), ART-558 (NSC835418), RP-6685 (NSC848927), peposertib (NSC802822), ceralasertib (NSC780249), elimusertib (NSC800525), camonsertib (NSC841442), AZD-1390 (NSC803789), olaparib (NSC753686), talazoparib (NSC767125), rucaparib (NSC756644), sotorasib (NSC818433), MRTX-1133 (NSC836407), SN-38 (NSC673596), topotecan (NSC609699), epotoside (NSC141540), doxorubicin (NSC123127), gemcitabine (NSC613327), 5-fluorouracil (NSC19893), paclitaxel (NSC125973), vemurafenib (NSC761431), MSA-2 (NSC828583), SN-011 (NSC837082), adavosertib (NSC754352), prexasertib (NSC758257), carboplatin (NSC241240) and oxaliplatin (NSC266046), were obtained from the National Cancer Institute (NCI) Developmental Therapeutics Program Chemical Repository (21). The FDA-approved anticancer drug set is available from the Developmental Therapeutics Program at https://dtp.cancer.gov/organization/dscb/obtaining/. […] The stock solutions were prepared in dimethyl sulfoxide (DMSO, Sigma-Aldrich, St. Louis, MO, cat. D2650), except for the platinum compounds which were prepared in saline (Quality Biological, Gaithersburg, MD, cat. 114-055-101), at 800-fold the tested concentration and stored at -70 degrees C prior to their use. All drugs and investigational agents were tested over a range starting from a high concentration at or near the clinical Cmax and decreasing in half-log increments. If the clinical Cmax for an agent had not been determined, the highest concentration tested was 10 microM, except for SN-38, which was tested at a high concentration of 1 microM.
# Cell Culture. All cells were maintained in an incubator at 37 degrees C and 5% CO2 with 95% humidity. The PDC lines were cultured according to standard operating procedures established by the NCI PDMR (https://pdmr.cancer.gov). Table 3 of the manuscript, lists the cell lines along with the number of the three cell types plated to form the mct-spheroids and media for tumor cell growth. After thawing, all PDC lines, except 997537-175-T-J1-PDC and 415267-285-R-J2-PDC, were cultured in Matrigel-coated flasks prepared with a working solution of 1X Ham's F-12 nutrient mix, without supplementation (Thermo Fisher Scientific, cat. 11765054), 100 U/mL penicillin-streptomycin (Thermo Fisher Scientific, cat. 15140122), and 2.5% Matrigel (Corning Inc., Corning, NY, cat. 354248) for the first three passages. The two PDC lines 997537-175-T-J1-PDC and 415267-285-R-J2-PDC were cultured on uncoated flasks. The 857933-349-R-J2-PDC line was cultured in 6C/Colon 1B media containing advanced DMEM/F-12 (Thermo Fisher Scientific, cat. 12634028), 10 mM HEPES (Thermo Fisher Scientific, cat. 15630080), 1X GlutaMAX supplement (Thermo Fisher Scientific, cat. 35050061), 0.1 mg/mL primocin (InvivoGen, San Diego, CA, cat. ant-pm-2), 10% defined fetal bovine serum, heat inactivated (HyClone Laboratories Inc., Logan, UT, cat. SH30070.03HI), 50% L-WRN conditioned media (ATCC, cat. CRL-3276), 1.25 mM N-Acetyl-L-cysteine (Sigma-Aldrich, cat. A9165), 10 mM nicotinamide (Sigma-Aldrich, cat. N0636), 1X B-27 supplement (Thermo Fisher Scientific, cat. 17504044), 1X N-2 supplement (Thermo Fisher Scientific, cat. […]
# [1] = second compound 0.0316 µM, first compound 0.0316 µM
# [2] = second compound 0.0316 µM, first compound 0.1 µM
# [3] = second compound 0.0316 µM, first compound 0.316 µM
# [4] = second compound 0.0316 µM, first compound 1 µM
# [5] = second compound 0.1 µM, first compound 0.0316 µM
# [6] = second compound 0.1 µM, first compound 0.1 µM
# [7] = second compound 0.1 µM, first compound 0.316 µM
# [8] = second compound 0.1 µM, first compound 1 µM
# [9] = second compound 0.316 µM, first compound 0.0316 µM
# [10] = second compound 0.316 µM, first compound 0.1 µM
# [11] = second compound 0.316 µM, first compound 0.316 µM
# [12] = second compound 0.316 µM, first compound 1 µM
# [13] = second compound 1 µM, first compound 0.0316 µM
# [14] = second compound 1 µM, first compound 0.1 µM
# [15] = second compound 1 µM, first compound 0.316 µM
# [16] = second compound 1 µM, first compound 1 µM
# [17] = second compound 3.16 µM, first compound 0.0316 µM
# [18] = second compound 3.16 µM, first compound 0.1 µM
# [19] = second compound 3.16 µM, first compound 0.316 µM
# [20] = second compound 3.16 µM, first compound 1 µM
# [21] = second compound 10 µM, first compound 0.0316 µM
# [22] = second compound 10 µM, first compound 0.1 µM
# [23] = second compound 10 µM, first compound 0.316 µM
# [24] = second compound 10 µM, first compound 1 µM
# 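Further: spheroids exposed to drugs for one week before readout.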
# 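Wherever viability, T/C is given: percent viability relative to DMSO vehicle control wells set as 100%.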
smiles,measurement,setting,value
C=CCn1c(=O)c2cnc(Nc3ccc(N4CCN(C)CC4)cc3)nc2n1-c1cccc(C(C)(C)O)n1 + COC1C(OC(N)=O)C(O)C(Oc2ccc3c(O)c(NC(=O)c4ccc(O)c(CC=C(C)C)c4)c(=O)oc3c2C)OC1(C)C,IC50,second compound 0.0316 µM,0.494 µM
same,IC50,second compound 0.1 µM,0.445 µM
same,IC50,second compound 0.316 µM,0.414 µM
same,IC50,second compound 1 µM,0.339 µM
same,IC50,second compound 3.16 µM,0.277 µM
same,IC50,second compound 10 µM,0.47 µM
same,"viability, T/C","second compound 0.0316 µM, first compound 0.00316 µM",106%
same,"viability, T/C","second compound 0.0316 µM, first compound 0.01 µM",95.1%
same,"viability, T/C",[1],93%
same,"viability, T/C",[2],85.3%
same,"viability, T/C",[3],54.1%
same,"viability, T/C",[4],41.6%
same,"viability, T/C","second compound 0.1 µM, first compound 0.00316 µM",102%
same,"viability, T/C","second compound 0.1 µM, first compound 0.01 µM",105%
same,"viability, T/C",[5],90.7%
same,"viability, T/C",[6],80%
same,"viability, T/C",[7],57.7%
same,"viability, T/C",[8],32.2%
same,"viability, T/C","second compound 0.316 µM, first compound 0.00316 µM",88%
same,"viability, T/C","second compound 0.316 µM, first compound 0.01 µM",86.1%
same,"viability, T/C",[9],78.3%
same,"viability, T/C",[10],87.4%
same,"viability, T/C",[11],52.8%
same,"viability, T/C",[12],40.7%
same,"viability, T/C","second compound 1 µM, first compound 0.00316 µM",84.4%
same,"viability, T/C","second compound 1 µM, first compound 0.01 µM",98.5%
same,"viability, T/C",[13],93.3%
same,"viability, T/C",[14],85.2%
same,"viability, T/C",[15],50.9%
same,"viability, T/C",[16],37.1%
same,"viability, T/C","second compound 3.16 µM, first compound 0.00316 µM",93.6%
same,"viability, T/C","second compound 3.16 µM, first compound 0.01 µM",104%
same,"viability, T/C",[17],89.1%
same,"viability, T/C",[18],70.9%
same,"viability, T/C",[19],47.7%
same,"viability, T/C",[20],37.7%
same,"viability, T/C","second compound 10 µM, first compound 0.00316 µM",98%
same,"viability, T/C","second compound 10 µM, first compound 0.01 µM",109%
same,"viability, T/C",[21],91.3%
same,"viability, T/C",[22],80.5%
same,"viability, T/C",[23],56.6%
same,"viability, T/C",[24],37.6%
CC1COCCN1c1cc(C2(S(C)(=N)=O)CC2)nc(-c2ccnc3[nH]ccc23)n1 (centres undefined) + COC1C(OC(N)=O)C(O)C(Oc2ccc3c(O)c(NC(=O)c4ccc(O)c(CC=C(C)C)c4)c(=O)oc3c2C)OC1(C)C,IC50,second compound 0.0316 µM,5.67 µM
same,IC50,second compound 0.1 µM,7.87 µM
same,IC50,second compound 0.316 µM,6.15 µM
same,IC50,second compound 1 µM,5.99 µM
same,IC50,second compound 3.16 µM,5.86 µM
same,IC50,second compound 10 µM,5.68 µM
same,"viability, T/C",[1],119%
same,"viability, T/C",[2],99.4%
same,"viability, T/C",[3],110%
same,"viability, T/C",[4],88.1%
same,"viability, T/C","second compound 0.0316 µM, first compound 3.16 µM",64.9%
same,"viability, T/C","second compound 0.0316 µM, first compound 10 µM",35.5%
same,"viability, T/C",[5],96%
same,"viability, T/C",[6],107%
same,"viability, T/C",[7],109%
same,"viability, T/C",[8],82.7%
same,"viability, T/C","second compound 0.1 µM, first compound 3.16 µM",71%
same,"viability, T/C","second compound 0.1 µM, first compound 10 µM",44.5%
same,"viability, T/C",[9],107%
same,"viability, T/C",[10],98%
same,"viability, T/C",[11],115%
same,"viability, T/C",[12],83.1%
same,"viability, T/C","second compound 0.316 µM, first compound 3.16 µM",77.2%
same,"viability, T/C","second compound 0.316 µM, first compound 10 µM",31.9%
same,"viability, T/C",[13],121%
same,"viability, T/C",[14],101%
same,"viability, T/C",[15],94%
same,"viability, T/C",[16],84.4%
same,"viability, T/C","second compound 1 µM, first compound 3.16 µM",77.2%
same,"viability, T/C","second compound 1 µM, first compound 10 µM",31.8%
same,"viability, T/C",[17],93.1%
same,"viability, T/C",[18],106%
same,"viability, T/C",[19],114%
same,"viability, T/C",[20],99.3%
same,"viability, T/C","second compound 3.16 µM, first compound 3.16 µM",70.4%
same,"viability, T/C","second compound 3.16 µM, first compound 10 µM",32.4%
same,"viability, T/C",[21],97.6%
same,"viability, T/C",[22],91.4%
same,"viability, T/C",[23],100%
same,"viability, T/C",[24],89.2%
same,"viability, T/C","second compound 10 µM, first compound 3.16 µM",71.1%
same,"viability, T/C","second compound 10 µM, first compound 10 µM",29.8%
